Data taken from PubChem BioAssay (NCI).
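48-hour exposure; five concentrations; linearly interpolated endpoints. TGI: total growth inhibition.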

Tested on: P388/ADR leukemia
Assay: NCI tumour cell line growth inhibition, 48 h

Q: `O=C1NC2(CCCCC2)C(=O)N1CCN(CCCl)CCCl` was tested. Which TGI did it give?
A: 234 µM
